The source made the active and inactive calls. The calls are words filed in the database; no cut-off is given here.
Experiments:
[1] = biological target: T1, Isocitrate dehydrogenase [NADP] cytoplasmic (Homo sapiens, UniProt O75874); experiment: Inhibition of IDH1 (unknown origin) at 30 uM by enzymatic assay
[2] = test system: Isocitrate dehydrogenase [NADP] cytoplasmic (Homo sapiens), O75874 [R132C]; experiment: Inhibition of IDH1 R132C mutant (unknown origin) at 30 uM by enzymatic assay
Homo sapiens = species: Homo sapiens; experiment: Ratio of inhibition of IDH1 R132C mutant (unknown origin) at 30 uM to inhibition of IDH1 (unknown origin) at 30 uM by enzymatic assay
[3] = biological target: T1, Isocitrate dehydrogenase [NADP] cytoplasmic; experiment: Binding affinity to IDH1 (unknown origin) by surface plasmon resonance assay
[4] = biological target: T2, Isocitrate dehydrogenase [NADP] cytoplasmic (Homo sapiens, UniProt O75874, R132C); experiment: Binding affinity to IDH1 R132C mutant (unknown origin) by surface plasmon resonance assay
T2 sequence (O75874 2-414 R132C limits assumed): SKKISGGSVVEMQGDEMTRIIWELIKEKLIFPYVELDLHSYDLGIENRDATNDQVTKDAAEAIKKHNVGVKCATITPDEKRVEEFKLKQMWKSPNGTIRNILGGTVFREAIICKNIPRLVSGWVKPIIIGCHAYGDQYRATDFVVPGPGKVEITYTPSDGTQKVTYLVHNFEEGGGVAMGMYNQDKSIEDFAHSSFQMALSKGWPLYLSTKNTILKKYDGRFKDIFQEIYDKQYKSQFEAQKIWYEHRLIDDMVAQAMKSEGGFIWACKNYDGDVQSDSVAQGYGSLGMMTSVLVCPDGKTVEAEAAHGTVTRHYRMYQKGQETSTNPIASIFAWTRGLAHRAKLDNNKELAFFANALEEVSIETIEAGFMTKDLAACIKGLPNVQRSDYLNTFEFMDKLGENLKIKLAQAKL

[5] = biological target: T3, Isocitrate dehydrogenase [NADP] cytoplasmic (Homo sapiens, UniProt O75874, R132H); experiment: Binding affinity to IDH1 R132H mutant (unknown origin) by surface plasmon resonance assay
T3 sequence (O75874 2-414 R132H limits assumed): as the sequence (O75874 2-414 R132C limits assumed) above, with C131H counted along it

[6] = test system: Isocitrate dehydrogenase [NADP] cytoplasmic (Homo sapiens), O75874 [R132C]; experiment: Binding affinity to IDH1 R132C mutant (unknown origin) by mass spectrometry
[7] = test system: Isocitrate dehydrogenase [NADP] cytoplasmic (Homo sapiens), O75874 [R132H]; experiment: Binding affinity to IDH1 R132H mutant (unknown origin) by mass spectrometry
Sequence of Isocitrate dehydrogenase [NADP] cytoplasmic (Homo sapiens), O75874 [R132H] (O75874 whole entry R132H): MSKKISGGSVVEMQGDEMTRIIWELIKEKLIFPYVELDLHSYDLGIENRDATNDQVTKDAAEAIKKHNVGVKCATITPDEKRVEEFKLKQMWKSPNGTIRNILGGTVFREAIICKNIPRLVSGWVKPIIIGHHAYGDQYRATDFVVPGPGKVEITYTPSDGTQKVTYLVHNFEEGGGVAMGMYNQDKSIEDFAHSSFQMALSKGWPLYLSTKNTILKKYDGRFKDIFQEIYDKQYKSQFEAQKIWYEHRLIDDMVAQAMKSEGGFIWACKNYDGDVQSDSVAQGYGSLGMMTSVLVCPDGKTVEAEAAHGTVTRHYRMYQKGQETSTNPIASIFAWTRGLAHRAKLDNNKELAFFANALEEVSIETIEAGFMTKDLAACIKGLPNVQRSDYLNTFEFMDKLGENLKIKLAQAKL

[8] = biological target: T1, Isocitrate dehydrogenase [NADP] cytoplasmic; experiment: Inhibition of IDH1 (unknown origin) by enzymatic assay
[9] = biological target: T2, Isocitrate dehydrogenase [NADP] cytoplasmic; experiment: Inhibition of IDH1 R132C mutant (unknown origin) by enzymatic assay
[10] = biological target: T3, Isocitrate dehydrogenase [NADP] cytoplasmic; experiment: Inhibition of IDH1 R132H mutant (unknown origin) by enzymatic assay
HT-1080 [11] = experiment: Antiproliferative activity against human HT1080 cells harboring IDH1-R132C mutation incubated for 48 hrs; format: functional, cell-based
[12] = Cytotoxicity against human RCTEC incubated for 48 hrs
U-87 MG = experiment: Cytotoxicity against human U87MG cells harboring wild type IDH1 incubated for 48 hrs; format: functional, cell-based, U-87MG ATCC
HT-1080 [13] = experiment: Reduction in 2 HG level in human HT1080 cells harboring IDH1-R132C mutation incubated for 48 hrs by LC-MS analysis relative to control; format: functional
HT-1080 [14] = experiment: Reduction in CDK1 mRNA level in human HT1080 cells incubated for 48 hrs by qRT-PCR analysis; format: functional, cell-based
HT-1080 [15] = experiment: Reduction in CDK2 mRNA level in human HT1080 cells incubated for 48 hrs by qRT-PCR analysis; format: functional, cell-based
HT-1080 [16] = experiment: Reduction in CDK1 protein expression in human HT1080 cells incubated for 48 hrs by Western blot analysis; format: functional, cell-based
HT-1080 [17] = experiment: Reduction in CDK2 protein expression in human HT1080 cells incubated for 48 hrs by Western blot analysis; format: functional, cell-based
HT-1080 [18] = experiment: Reduction in ACO1 […] expression in human HT1080 cells by RNA-Seq data analysis; format: functional, cell-based
HT-1080 [19] = experiment: Reduction in PDHB […] expression in human HT1080 cells by RNA-Seq data analysis; format: functional, cell-based
HT-1080 [20] = experiment: Induction of cell cycle arrest in human HT1080 cells assessed accumulation at G1 phase at 5 uM incubated for 24 hrs by flow cytometric analysis (reference value: 31.67%); format: functional
HT-1080 [21] = experiment: Induction of cell cycle arrest in human HT1080 cells assessed accumulation at S phase at 5 uM incubated for 24 hrs by flow cytometric analysis (reference value: 52.69%); format: functional
HT-1080 [22] = experiment: Induction of cell cycle arrest in human HT1080 cells assessed accumulation at G2 phase at 5 uM incubated for 24 hrs by flow cytometric analysis (reference value: 15.64%); format: functional
HT-1080 [23] = experiment: Induction of cell cycle arrest in human HT1080 cells assessed accumulation at G1 phase at 10 uM incubated for 24 hrs by flow cytometric analysis (reference value: 31.67%); format: functional
HT-1080 [24] = experiment: Induction of cell cycle arrest in human HT1080 cells assessed accumulation at S phase at 10 uM incubated for 24 hrs by flow cytometric analysis (reference value: 52.69%); format: functional
HT-1080 [25] = experiment: Induction of cell cycle arrest in human HT1080 cells assessed accumulation at G2 phase at 10 uM incubated for 24 hrs by flow cytometric analysis (reference value: 15.64%); format: functional
HT-1080 [26] = experiment: Induction of cell cycle arrest in human HT1080 cells assessed accumulation at G1 phase at 20 uM incubated for 24 hrs by flow cytometric analysis (reference value: 31.67%); format: functional
HT-1080 [27] = experiment: Induction of cell cycle arrest in human HT1080 cells assessed accumulation at S phase at 20 uM incubated for 24 hrs by flow cytometric analysis (reference value: 52.69%); format: functional
HT-1080 [28] = experiment: Induction of cell cycle arrest in human HT1080 cells assessed accumulation at G2 phase at 20 uM incubated for 24 hrs by flow cytometric analysis (reference value: 15.64%); format: functional
HT-1080 [29] = experiment: Induction of apoptosis in human HT1080 cells assessed as viable cells at 5 uM incubated for 48 hrs by flow cytometric analysis (reference value: 95.9%); format: functional; conditions: HT-1080, 48 h, read-out: Activity
HT-1080 [30] = experiment: Induction of apoptosis in human HT1080 cells assessed as early apoptotic cells at 5 uM incubated for 48 hrs by flow cytometric analysis (reference value: 0.63%); format: functional
HT-1080 [31] = experiment: Induction of apoptosis in human HT1080 cells assessed as late apoptotic cells at 5 uM incubated for 48 hrs by flow cytometric analysis (reference value: 2.48%); format: functional
HT-1080 [32] = experiment: Induction of apoptosis in human HT1080 cells assessed as necrotic cells at 5 uM incubated for 48 hrs by flow cytometric analysis (reference value: 0.95%); format: functional
HT-1080 [33] = experiment: Induction of apoptosis in human HT1080 cells assessed as viable cells at 10 uM incubated for 48 hrs by flow cytometric analysis (reference value: 95.9%); format: functional; conditions: HT-1080, 48 h, read-out: Activity
HT-1080 [34] = experiment: Induction of apoptosis in human HT1080 cells assessed as early apoptotic cells at 10 uM incubated for 48 hrs by flow cytometric analysis (reference value: 0.63%); format: functional
HT-1080 [35] = experiment: Induction of apoptosis in human HT1080 cells assessed as late apoptotic cells at 10 uM incubated for 48 hrs by flow cytometric analysis (reference value: 2.48%); format: functional
HT-1080 [36] = experiment: Induction of apoptosis in human HT1080 cells assessed as necrotic cells at 10 uM incubated for 48 hrs by flow cytometric analysis (reference value: 0.95%); format: functional
HT-1080 [37] = experiment: Induction of apoptosis in human HT1080 cells assessed as viable cells at 20 uM incubated for 48 hrs by flow cytometric analysis (reference value: 95.9%); format: functional; conditions: HT-1080, 48 h, read-out: Activity
HT-1080 [38] = experiment: Induction of apoptosis in human HT1080 cells assessed as early apoptotic cells at 20 uM incubated for 48 hrs by flow cytometric analysis (reference value: 0.63%); format: functional
HT-1080 [39] = experiment: Induction of apoptosis in human HT1080 cells assessed as late apoptotic cells at 20 uM incubated for 48 hrs by flow cytometric analysis (reference value: 2.48%); format: functional
HT-1080 [40] = experiment: Induction of apoptosis in human HT1080 cells assessed as necrotic cells at 20 uM incubated for 48 hrs by flow cytometric analysis (reference value: 0.95%); format: functional
HT-1080 [41] = experiment: Induction of cell cycle arrest in human HT1080 cells assessed accumulation at G2 phase incubated for 24 hrs by flow cytometric analysis; format: functional, cell-based

T1 sequence (O75874 whole entry): as the sequence (O75874 whole entry R132H) above, with H132R counted along it
Sequence of Isocitrate dehydrogenase [NADP] cytoplasmic (Homo sapiens), O75874 [R132C] (O75874 whole entry R132C): as the sequence (O75874 whole entry R132H) above, with H132C counted along it

C=CC(C)(C)c1cc(/C=C/C(=O)c2ccc(O)cc2)c(OC)cc1O [LICOAGROCHACONE A]
inhibition [1]: inactive
inhibition [2]: Active
Ratio (Homo sapiens): 3
Kd [3]: > 50 µM
Kd [4]: 2810 nM
Kd [5]: 12.8 µM
Activity [6]: Active
Activity [7]: inactive
IC50 [8]: > 100 µM
IC50 [9]: 5.18 µM
IC50 [10]: 76.9 µM
Activity (HT-1080 [11]): Dose-dependent effect
IC50 (HT-1080 [11]; HT-1080, 48 h): 10.8 µM
IC50 [12]: > 50 µM
IC50 (U-87 MG): > 50 µM
inhibition (HT-1080 [13]): Dose-dependent effect
inhibition (INH) (HT-1080 [13]): >50%
inhibition (HT-1080 [14]): Dose-dependent effect
inhibition (HT-1080 [15]): Dose-dependent effect
inhibition (HT-1080 [16]): Dose-dependent effect
inhibition (HT-1080 [17]): Dose-dependent effect
inhibition (HT-1080 [18]): Dose-dependent effect
inhibition (HT-1080 [19]): Dose-dependent effect
Activity (HT-1080 [20]): 35.93%
Activity (HT-1080 [21]): 43.13%
Activity (HT-1080 [22]): 20.94%
Activity (HT-1080 [23]): 21.99%
Activity (HT-1080 [24]): 45.83%
Activity (HT-1080 [25]): 24.18%
Activity (HT-1080 [26]): 24.76%
Activity (HT-1080 [27]): 41.29%
Activity (HT-1080 [28]): 33.95%
viability at 5 µM (HT-1080 [29]): 80.5%
Activity (HT-1080 [30]): 1.26%
Activity (HT-1080 [31]): 15.2%
Activity (HT-1080 [32]): 3.13%
viability at 10 µM (HT-1080 [33]): 64.1%
Activity (HT-1080 [34]): 4.97%
Activity (HT-1080 [35]): 26.6%
Activity (HT-1080 [36]): 4.4%
viability at 20 µM (HT-1080 [37]): 42%
Activity (HT-1080 [38]): 0.82%
Activity (HT-1080 [39]): 54.4%
Activity (HT-1080 [40]): 2.79%
Activity (HT-1080 [41]): Dose-dependent effect
